Measurements as given in patent publication US20240180883A1, “TREATMENT OF MIGRAINE” (Allergan Pharmaceuticals International Limited, priority 2020, published 2024).
Entries after “also recorded” stand apart in the source; their conditions may differ.

What was measured:
[1] = system: plasma protein; assay: Plasma protein binding in vitro; format: in vitro ADME
[2] = system: adult patients with migraine; assay: Phase 3 Study 1 (NCT02828020) migraine efficacy; format: in vivo, human
Source text: In two randomized, double-blind, placebo-controlled, Ph. […] Of the ubrogepant-treated patients in these two studies, approximately 89% were female, 82% were white, 15% were Black, and 17% were of Hispanic or Latino ethnicity. The mean age at study entry was 41 years (range of 18-75 years).
In all studies, patients were instructed to treat a migraine with moderate to severe headache pain intensity. […] Up to 23% of patients were taking preventive medications for migraine at baseline. None of these patients were on concomitant preventive medication that act on the CGRP pathway.
The primary efficacy analyses were conducted in patients who treated a migraine with moderate to severe pain. […] Pain freedom was defined as a reduction of moderate or severe headache pain to no pain, and MBS freedom was defined as the absence of the self-identified MBS (i.e., photophobia, phonophobia, or nausea). Among patients who selected an MBS, the most commonly selected was photophobia (56%), followed by phonophobia (24%) and nausea (19%).
Table 14 also presents the results of the analyses of the percentage of patients achieving pain relief at 2 hours (defined as a reduction in migraine pain from moderate or severe to mild or none) post-dose and the percentage of patients achieving sustained pain freedom between 2 to 24 hours post-dose.

[3] = target: T1, BCRP (Homo sapiens, UniProt Q9UNQ0); assay: BCRP transporter substrate in vitro; format: in vitro ADME
T1 sequence (Q9UNQ0 1-655): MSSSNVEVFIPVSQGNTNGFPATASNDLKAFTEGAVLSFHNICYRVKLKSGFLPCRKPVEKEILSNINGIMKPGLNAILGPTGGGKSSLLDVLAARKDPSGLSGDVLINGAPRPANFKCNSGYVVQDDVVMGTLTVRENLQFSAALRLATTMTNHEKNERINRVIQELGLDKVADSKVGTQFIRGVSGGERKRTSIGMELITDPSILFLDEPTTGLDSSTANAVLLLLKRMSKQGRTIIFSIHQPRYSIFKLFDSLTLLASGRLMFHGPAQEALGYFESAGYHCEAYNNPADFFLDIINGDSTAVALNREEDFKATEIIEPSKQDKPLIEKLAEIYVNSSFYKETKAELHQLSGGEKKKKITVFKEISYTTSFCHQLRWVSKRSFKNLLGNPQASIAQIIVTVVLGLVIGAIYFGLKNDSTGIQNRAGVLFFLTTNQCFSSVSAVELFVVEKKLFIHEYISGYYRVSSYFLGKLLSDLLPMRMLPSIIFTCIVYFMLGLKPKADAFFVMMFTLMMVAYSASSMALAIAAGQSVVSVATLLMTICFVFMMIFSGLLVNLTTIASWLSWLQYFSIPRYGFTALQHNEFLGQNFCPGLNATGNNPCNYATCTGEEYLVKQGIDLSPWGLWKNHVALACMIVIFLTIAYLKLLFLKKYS

[4] = target: P-gp (Homo sapiens, UniProt P08183); assay: P-gp transporter substrate in vitro; format: in vitro ADME
[5] = target: T2, CYP3A4 (Homo sapiens, UniProt P08684); assay: Expected interaction with weak or moderate CYP3A4 inducers
T2 construct: mainly eliminated by CYP3A4 metabolism; from tissue; host or cells: in vivo, the patient's own enzyme (the gut wall is mentioned)

[6] = Study B: adverse events
[7] = Total: participants who took any investigational product
[8] = Total: participants who took any investigative product
[9] = Treatment A: ubrogepant 100 mg single dose, fasted
[10] = Treatment C: 600 mg rifampin co-administered with 100 mg ubrogepant on Day 14

T2 sequence (P08684 whole entry): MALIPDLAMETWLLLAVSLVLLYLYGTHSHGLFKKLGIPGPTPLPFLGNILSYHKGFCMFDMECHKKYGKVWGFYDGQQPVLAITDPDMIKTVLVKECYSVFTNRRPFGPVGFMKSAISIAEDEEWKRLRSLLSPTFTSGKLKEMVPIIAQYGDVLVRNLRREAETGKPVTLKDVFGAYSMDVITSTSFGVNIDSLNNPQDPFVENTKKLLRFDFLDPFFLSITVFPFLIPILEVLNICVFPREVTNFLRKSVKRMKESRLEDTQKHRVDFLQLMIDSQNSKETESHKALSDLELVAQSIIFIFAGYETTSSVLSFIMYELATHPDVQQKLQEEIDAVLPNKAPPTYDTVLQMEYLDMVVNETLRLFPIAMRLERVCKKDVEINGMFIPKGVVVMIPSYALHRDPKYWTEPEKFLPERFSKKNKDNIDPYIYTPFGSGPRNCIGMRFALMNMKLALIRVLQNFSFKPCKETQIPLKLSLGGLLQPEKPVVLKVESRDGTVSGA
Chain of P-gp (P08183 whole entry): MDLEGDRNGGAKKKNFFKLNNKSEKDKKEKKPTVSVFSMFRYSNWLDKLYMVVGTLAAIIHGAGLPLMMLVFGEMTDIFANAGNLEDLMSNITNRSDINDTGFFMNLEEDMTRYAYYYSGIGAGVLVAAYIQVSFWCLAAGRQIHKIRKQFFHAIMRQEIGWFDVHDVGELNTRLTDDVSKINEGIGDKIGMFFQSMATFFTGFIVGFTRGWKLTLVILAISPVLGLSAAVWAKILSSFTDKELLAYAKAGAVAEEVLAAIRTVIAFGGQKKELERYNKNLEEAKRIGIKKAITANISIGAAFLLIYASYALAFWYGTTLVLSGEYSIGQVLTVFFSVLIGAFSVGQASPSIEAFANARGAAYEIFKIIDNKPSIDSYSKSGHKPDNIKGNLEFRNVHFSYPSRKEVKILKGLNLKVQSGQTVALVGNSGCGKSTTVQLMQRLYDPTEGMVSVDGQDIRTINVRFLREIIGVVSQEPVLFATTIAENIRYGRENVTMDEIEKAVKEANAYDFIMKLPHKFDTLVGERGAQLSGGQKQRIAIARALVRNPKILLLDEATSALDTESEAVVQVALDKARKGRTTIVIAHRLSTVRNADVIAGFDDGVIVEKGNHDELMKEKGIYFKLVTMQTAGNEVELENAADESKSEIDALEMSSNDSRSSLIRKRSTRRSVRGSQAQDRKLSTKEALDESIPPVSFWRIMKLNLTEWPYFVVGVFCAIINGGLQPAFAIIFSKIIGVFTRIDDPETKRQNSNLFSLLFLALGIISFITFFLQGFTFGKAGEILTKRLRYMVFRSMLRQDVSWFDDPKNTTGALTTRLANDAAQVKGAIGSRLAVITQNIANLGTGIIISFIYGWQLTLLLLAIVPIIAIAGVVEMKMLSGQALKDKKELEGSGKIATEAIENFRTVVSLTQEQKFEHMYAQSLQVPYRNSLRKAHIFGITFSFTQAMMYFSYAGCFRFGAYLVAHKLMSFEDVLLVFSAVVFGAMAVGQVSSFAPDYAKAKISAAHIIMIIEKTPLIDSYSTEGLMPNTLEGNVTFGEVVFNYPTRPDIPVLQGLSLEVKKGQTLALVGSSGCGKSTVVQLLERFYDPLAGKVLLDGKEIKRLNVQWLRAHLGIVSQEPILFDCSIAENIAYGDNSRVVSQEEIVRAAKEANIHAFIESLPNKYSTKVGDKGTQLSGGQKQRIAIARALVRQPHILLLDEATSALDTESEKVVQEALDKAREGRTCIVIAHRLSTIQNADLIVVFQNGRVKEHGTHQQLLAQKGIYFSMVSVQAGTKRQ

C[C@@H]1[C@H](c2ccccc2)C[C@H](NC(=O)c2cnc3c(c2)C[C@@]2(C3)C(=O)Nc3ncccc32)C(=O)N1CC(F)(F)F [ubrogepant, (3′S)-N-((3S,5S,6R)-6-methyl-2-oxo-5-phenyl-1-(2,2,2-trifluoroethyl)piperidin-3-yl)-2′-oxo-1′,2′,5,7-etrahydrospiro[cyclopenta[b]pyridine-6,3′-pyrrolo[2,3-b]pyridine]-3-carboxamide]
fraction unbound [1]: 0.13
Most Bothersome Symptom Free at 2 hours, % Responders ([2]; Study 1, 50 mg): 38.6%
Most Bothersome Symptom Free at 2 hours, Difference from Placebo ([2]; Study 1, 50 mg): 10.8%
Pain Relief at 2 hours, % Responders ([2]; Study 1, 50 mg): 60.7%
Pain free at 2 hours, % Responders ([2]; Study 1, 50 mg): 19.2%
Pain free at 2 hours, Difference from Placebo ([2]; Study 1, 50 mg): 7.4%
Sustained pain freedom at 2-24 hours, % Responders ([2]; Study 1, 50 mg): 12.7%
Most Bothersome Symptom Free at 2 hours, % Responders ([2]; Study 1, 100 mg): 37.7%
Most Bothersome Symptom Free at 2 hours, Difference from Placebo ([2]; Study 1, 100 mg): 9.9%
Pain Relief at 2 hours, % Responders ([2]; Study 1, 100 mg): 61.4%
Pain free at 2 hours, % Responders ([2]; Study 1, 100 mg): 21.2%
Pain free at 2 hours, Difference from Placebo ([2]; Study 1, 100 mg): 9.4%
Sustained pain freedom at 2-24 hours, % Responders ([2]; Study 1, 100 mg): 15.4%
incidence of photophobia and phonophobia compared to placebo ([2]; both doses (50 and 100 mg)): reduced
substrate of BCRP transporter [3]: substrate
substrate of P-gp transporter [4]: substrate
reduction of ubrogepant exposure ([5]; moderate CYP3A4 inducers): 50-80%
reduction of ubrogepant exposure ([5]; weak CYP3A4 inducers): 20-50%
participants with headache ([6]; Study B, whole trial): 13.3%
Any AE [6, 7]: 6 (20.0) n (%)
Dry Mouth [6, 7]: 1 (3.3) n (%)
Flatulence [6, 7]: 1 (3.3) n (%)
Gastrointestinal Disorders [6, 7]: 4 (13.3) n (%)
Headache [6, 7]: 4 (13.3) n (%)
Nausea [6, 7]: 2 (6.7) n (%)
Nervous System Disorders [6, 7]: 4 (13.3) n (%)
AEs leading to discontinuation [6, 8]: 0 n (%)
Deaths [6, 8]: 0 n (%)
SAEs [6, 8]: 0 n (%)
TEAEs [6, 8]: 6 (20.0) n (%)
Treatment related TEAEs [6, 8]: 6 (20.0) n (%)
AEs leading to discontinuation [6, 9]: 0 n (%)
Any AE [6, 9]: 4 (13.3) n (%)
Deaths [6, 9]: 0 n (%)
Dry Mouth [6, 9]: 1 (3.3) n (%)
Flatulence [6, 9]: 1 (3.3) n (%)
Gastrointestinal Disorders [6, 9]: 2 (6.7) n (%)
Headache [6, 9]: 2 (6.7) n (%)
Nausea [6, 9]: 0 n (%)
Nervous System Disorders [6, 9]: 2 (6.7) n (%)
SAEs [6, 9]: 0 n (%)
TEAEs [6, 9]: 4 (13.3) n (%)
Treatment related TEAEs [6, 9]: 4 (13.3) n (%)
AEs leading to discontinuation [6, 10]: 0 n (%)
Any AE [6, 10]: 2 (7.1) n (%)
Deaths [6, 10]: 0 n (%)
Dry Mouth [6, 10]: 0 n (%)
Flatulence [6, 10]: 0 n (%)
Gastrointestinal Disorders [6, 10]: 2 (7.1) n (%)
Headache [6, 10]: 1 (3.6) n (%)
Nausea [6, 10]: 2 (7.1) n (%)
Nervous System Disorders [6, 10]: 1 (3.6) n (%)
SAEs [6, 10]: 0 n (%)
TEAEs [6, 10]: 2 (7.1) n (%)
Treatment related TEAEs [6, 10]: 2 (7.1) n (%)
safety and tolerability ([6]; single oral dose coadministered with multiple doses of rifampin): safe and generally well tolerated; also recorded: safe and generally well-tolerated
